Reference: patent publication US12643887B2, “Heterocyclic derivatives with cardiomyocyte proliferation activity for treatment of heart diseases” (Tongji University, priority 2019, dated 2026)

Experiments:
human HIPK1 = molecular target: T1, human HIPK1 (Homo sapiens, UniProt Q86Z02); assay: HIPK1 enzyme assay (ADP-Glo); format: biochemical; details: ADP-Glo, ATP 5 μM; read-out: HIPK1 IC50
T1 construct: Recombinant human HIPK1 (156-555); GST (N); purchased SignalChem H03-11G; host or cells: Sf9 insect cells
T1 sequence (Q86Z02 156-555): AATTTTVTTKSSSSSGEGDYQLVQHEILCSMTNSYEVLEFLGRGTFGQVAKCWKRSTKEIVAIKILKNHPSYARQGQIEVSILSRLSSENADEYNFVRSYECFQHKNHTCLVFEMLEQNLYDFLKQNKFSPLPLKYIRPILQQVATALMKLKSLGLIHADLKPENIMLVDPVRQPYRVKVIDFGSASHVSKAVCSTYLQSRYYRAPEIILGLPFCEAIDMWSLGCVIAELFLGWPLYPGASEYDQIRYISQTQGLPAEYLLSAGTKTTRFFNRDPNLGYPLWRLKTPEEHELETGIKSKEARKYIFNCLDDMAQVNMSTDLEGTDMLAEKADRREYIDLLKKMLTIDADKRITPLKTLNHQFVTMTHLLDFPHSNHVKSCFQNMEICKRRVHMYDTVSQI
In short: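 Recombinant GST-tagged HIPK1 (156-555, Sf9), 4 nM, preincubated 30 min at 25° C with compound in Tris pH 7.5/MgCl2/BSA/DTT, then reacted 90 min with 0.05 mg/ml MBP and 5 μM ATP. ADP formed read by ADP-Glo luminescence; IC50 from four-parameter logistic fit of % inhibition versus Max/Min controls.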

[1] = test system: Neonatal Rat Ventricular Myocytes (NRVMs); assay: Myocyte proliferation assay (EdU assay) in neonatal rat ventricular myocytes; format: cell-based; details: growth relative to blank myocyte growth without compound added; for Avg 1 uM (average myocyte proliferation): compound 1 uM; for Avg 3 uM (average myocyte proliferation): compound 3 uM
In short: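 After 36 h compound exposure (1, 3 or 10 uM in 6% FBS/ITS DMEM, following 24 h low-serum culture), NRVMs were pulsed with EdU for 12 h. Proliferation scored by automated confocal imaging of EdU click chemistry, ab8295 immunostaining and DAPI nuclei in fixed cultures.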

Structure (SMILES) | IC50 (human HIPK1) | Avg 1 uM (average myocyte proliferation) [1] | Avg 3 uM (average myocyte proliferation) [1]
O=C1NC(Nc2ccc3ncsc3c2)=N/C1=C\c1ccc2cccnc2c1 [Example 60, (Z)-2-(benzo[d]thiazol-6-ylamino)-5-(quinolin-7-ylmethylene)-3,5-dihydro-4H-imidazol-4-one] | > 10 µM | * (<10% growth relative to blank myocyte growth without compound added.) | * (<10% growth relative to blank myocyte growth without compound added.)
Cn1cnc2cc(NC3=N/C(=C\c4ccc5ncsc5c4)C(=O)N3)ccc21 [Example 61, (Z)-5-(benzo[d]thiazol-6-ylmethylene)-2-((1-methyl-1H-benzo[d]imidazol-5-yl)amino)-3,5-dihydro-4H-imidazol-4-one] | 0.1 to 1 µM | * (<10% growth relative to blank myocyte growth without compound added.) | ** (10%-50%)
O=C1NC(Nc2ccc3ncsc3c2)=N/C1=C\c1ccc2cc[nH]c2c1 [Example 63, (Z)-5-((1H-indol-6-yl)methylene)-2-(benzo[d]thiazol-6-ylamino)-3,5-dihydro-4H-imidazol-4-one] | > 10 µM | * (<10% growth relative to blank myocyte growth without compound added.) | * (<10% growth relative to blank myocyte growth without compound added.)
O=C1NC(Nc2ccc3[nH]ccc3c2)=N/C1=C\c1ccc2ncsc2c1 [Example 69, (Z)-2-((1H-indol-5-yl)amino)-5-(benzo[d]thiazol-6-ylmethylene)-3,5-dihydro-4H-imidazol-4-one] | 0.1 to 1 µM | ** (10%-50%) | * (<10% growth relative to blank myocyte growth without compound added.)
CN(C1=N/C(=C\c2ccc3c(c2)OCO3)C(=O)N1)c1ccc2ncsc2c1 [Example 70, (Z)-5-(benzo[d][1,3]dioxol-5-ylmethylene)-2-(benzo[d]thiazol-6-yl(methyl)amino)-3,5-dihydro-4H-imidazol-4-one] | > 10 µM | ** (10%-50%) | ** (10%-50%)
Cn1cnc2cc(/C=C3\N=C(Nc4ccccc4)NC3=O)ccc21 [Example 71, (Z)-5-((1-methyl-1H-benzo[d]imidazol-5-yl)methylene)-2-(phenylamino)-3,5-dihydro-4H-imidazol-4-one] | > 10 µM | * (<10% growth relative to blank myocyte growth without compound added.) | * (<10% growth relative to blank myocyte growth without compound added.)
O=C1NC(Nc2ccccc2)=N/C1=C\c1ccc2sccc2c1 [Example 72, (Z)-5-(benzo[b]thiophen-5-ylmethylene)-2-(phenylamino)-3,5-dihydro-4H-imidazol-4-one] | > 10 µM | * (<10% growth relative to blank myocyte growth without compound added.) | * (<10% growth relative to blank myocyte growth without compound added.)
O=C1NC(Nc2ccccc2)=N/C1=C\c1ccc2cc[nH]c2c1 [Example 73, (Z)-5-((1H-indol-6-yl)methylene)-2-(phenylamino)-3,5-dihydro-4H-imidazol-4-one] | > 10 µM | * (<10% growth relative to blank myocyte growth without compound added.) | * (<10% growth relative to blank myocyte growth without compound added.)
O=C1NC(Nc2ccc3ncsc3c2)=N/C1=C\c1ccc2c(c1)OCCO2 [Example 74, (Z)-2-(benzo[d]thiazol-6-ylamino)-5-((2,3-dihydrobenzo[b][1,4]dioxin-6-yl)methylene)-3,5-dihydro-4H-imidazol-4-one] | > 10 µM | * (<10% growth relative to blank myocyte growth without compound added.) | *** (>50%)
Cn1cnc2ccc(/C=C3\N=C(Nc4ccc5ncsc5c4)NC3=O)cc21 [Example 75, (Z)-2-(benzo[d]thiazol-6-ylamino)-5-((1-methyl-1H-benzo[d]imidazol-6-yl)methylene)-3,5-dihydro-4H-imidazol-4-one] | < 0.1 µM | ** (10%-50%) | ** (10%-50%)
O=C1NC(Nc2ccc3ncsc3c2)=N/C1=C\c1ccc2nc[nH]c2c1 [Example 76, (Z)-5-((1H-benzo[d]imidazol-6-yl)methylene)-2-(benzo[d]thiazol-6-ylamino)-3,5-dihydro-4H-imidazol-4-one] | 0.1 to 1 µM | * (<10% growth relative to blank myocyte growth without compound added.) | ** (10%-50%)
Cn1ncc2cc(/C=C3\N=C(Nc4ccccc4)NC3=O)ccc21 [Example 77, (Z)-5-((1-methyl-1H-indazol-5-yl)methylene)-2-(phenylamino)-3,5-dihydro-4H-imidazol-4-one] | > 10 µM | * (<10% growth relative to blank myocyte growth without compound added.) | * (<10% growth relative to blank myocyte growth without compound added.)
Cn1ncc2cc(/C=C3\N=C(Nc4ccc5ncsc5c4)NC3=O)ccc21 [Example 78, (Z)-2-(benzo[d]thiazol-6-ylamino)-5-((1-methyl-1H-indazol-5-yl)methylene)-3,5-dihydro-4H-imidazol-4-one] | > 10 µM | * (<10% growth relative to blank myocyte growth without compound added.) | * (<10% growth relative to blank myocyte growth without compound added.)
Cn1ncc2ccc(/C=C3\N=C(Nc4ccccc4)NC3=O)cc21 [Example 79, 5-((1-methyl-1H-indazol-6-yl)methylene)-2-(phenylamino)-3,5-dihydro-4H-imidazol-4-one] | > 10 µM | * (<10% growth relative to blank myocyte growth without compound added.) | * (<10% growth relative to blank myocyte growth without compound added.)
Cn1ncc2ccc(/C=C3\N=C(Nc4ccc5ncsc5c4)NC3=O)cc21 [Example 80, (Z)-2-(benzo[d]thiazol-6-ylamino)-5-((1-methyl-1H-indazol-6-yl)methylene)-3,5-dihydro-4H-imidazol-4-one] | > 10 µM | * (<10% growth relative to blank myocyte growth without compound added.) | * (<10% growth relative to blank myocyte growth without compound added.)
O=C1NC(Nc2ccc3c(c2)OCCO3)=N/C1=C\c1ccc2ncsc2c1 [Example 81, (Z)-5-(benzo[d]thiazol-6-ylmethylene)-2-((2,3-dihydrobenzo[b][1,4]dioxin-6-yl)amino)-3,5-dihydro-4H-imidazol-4-one] | 0.1 to 1 µM | * (<10% growth relative to blank myocyte growth without compound added.) | * (<10% growth relative to blank myocyte growth without compound added.)
O=C1NC(Nc2ccc3nccnc3c2)=N/C1=C\c1ccc2ncsc2c1 [Example 82, (Z)-5-(benzo[d]thiazol-6-ylmethylene)-2-(quinoxalin-6-ylamino)-3,5-dihydro-4H-imidazol-4-one] | > 10 µM | ** (10%-50%) | ** (10%-50%)
CN(C1=N/C(=C\c2ccc3ncsc3c2)C(=O)N1)c1ccc2ncsc2c1 [Example 83, (Z)-2-(benzo[d]thiazol-6-yl(methyl)amino)-5-(benzo[d]thiazol-6-ylmethylene)-3,5-dihydro-4H-imidazol-4-one] | > 10 µM | ** (10%-50%) | ** (10%-50%)
CN(C1=N/C(=C\c2ccc3c(c2)OCCO3)C(=O)N1)c1ccc2ncsc2c1 [Example 84, (Z)-2-(benzo[d]thiazol-6-yl(methyl)amino)-5-((2,3-dihydrobenzo[b][1,4]dioxin-6-yl)methylene)-3,5-dihydro-4H-imidazol-4-one] | > 10 µM | * (<10% growth relative to blank myocyte growth without compound added.) | ** (10%-50%)
O=C1NC(Nc2ccc3ncsc3c2)=NC1Cc1ccc2ncsc2c1 (stereo not drawn) [Example 102, 2-(benzo[d]thiazol-6-ylamino)-5-(benzo[d]thiazol-6-ylmethyl)-3,5-dihydro-4H-imidazol-4-one] | 0.1 to 1 µM | * (<10% growth relative to blank myocyte growth without compound added.) | ** (10%-50%)
NC1=N/C(=C\c2ccc3ncsc3c2)C(=O)N1 [Example 103, (Z)-2-amino-5-(benzo[d]thiazol-6-ylmethylene)-3,5-dihydro-4H-imidazol-4-one] | 0.1 to 1 µM | ** (10%-50%) | ** (10%-50%)
O=C1NC(Nc2ccc3nc(Nc4ccccc4)sc3c2)=N/C1=C\c1ccc2ncsc2c1 [Example 104, (Z)-5-(benzo[d]thiazol-6-ylmethylene)-2-((2-(phenylamino)benzo[d]thiazol-6-yl)amino)-3,5-dihydro-4H-imidazol-4-one] | > 10 µM | * (<10% growth relative to blank myocyte growth without compound added.) | ** (10%-50%)
